For data set [1], the system named is HT-29 human colorectal carcinoma cells. The experiment in a line: Cell growth inhibition in vitro by Taxol preparations. In kind it is cell-based. To be noted: HT-29 cells, conjugate with Taxol content of 13%, read-out: ED50, cell growth inhibitory efficacy. How it is done:
PHF-SAG-Taxol conjugate synthesis was carried out on a 2-gram scale, at ambient temperature, pH 5.5-6.0. […] The PHF-SAG-Taxol was purified of low molecular weight impurities by gel filtration on G25 Sefadex column equilibrated with DI water, and recovered by lyophilyzation. […] Stability of PHF-Taxol conjugates in aqueous media was monitored by HPLC.

Data set [2] can be described thus: in vivo. To be noted: mouse. As for the experimental part: The toxicity of CPT was evaluated in normal outbred mice, as well as in xenograft bearing nude athymic animals in the course of antineoplastic activity studies.
Data set [3] can be described thus: Hydrolytic stability and CPT release in aqueous media / phosphate buffered saline (RP HPLC). It counts as physicochemical. As for the experimental part: The second stage hydrolysis of CPT-SI was investigated analogously.
Using procedures analogous to the described above, CPT release from these conjugates was investigated in phosphate buffered saline as described above. The conjugates were also tested for cytotoxicity in HT29 cell culture.

How the values of data set [4] were obtained: The resultant suspension was diluted to 150 ml and extracted with methylene chloride (3×150 ml). Methylene chloride layers were combined, washed with 0.01 N HCl, and dried over magnesium sulfate. Solvent was removed in vacuum.
Data set [5] deals with HT29 cell culture. The data set can be described thus: Cytotoxicity of CPT derivatives, MTT assay. In kind it is cell-based, human. Conditions: HT-29 cell culture, 72 hours post treatment, read-out: ID50, growth inhibition. As for the experimental part: Human colorectal adenocarcinoma HT-29 cell culture was from ATCC (ATCC HTB-38).
Cytotoxicity of CPT derivatives was investigated in HT29 cell culture. Cells were grown in McCoy's 5a medium with 1.5 mM L-glutamine supplemented with 10% FBS.
A general note: Formazan colour is commonly taken as a measure of viable cells.

In data set [6] the test system is HT-29 xenograft. In kind it is in vivo. To be noted: HT29 model; for time of tumor growth from 0.10-0.15 cm^3 to 1.5 cm^3: 22.5 mg/kg, untreated control 24 days. How it is done:
Camptothecin and CPT-SI (the first phase release product) were used as controls.
Cells were injected subcutaneously into the left flank, 10^6 cells per animal in 50 μl. […] Animals of the first three groups received the respective experimental substance via the tail vein in five doses every three days (5xq3D). […] CPT and CPT-SI were administered as dispersions in Tween 80/water (9/1 v/v). Animal weight, tumor size, animal appearance, behavior, and survival rate were monitored for four weeks after administration. Weight loss over 20% and tumor growth over 1500 mm^3 were counted as lethalities (animals were euthanized).
The latter were administered as Cremofor® emulsions.

pEC50, pIC50: −log10 of the molar value. Like-named read-outs stand apart in the source and are kept apart here.

Here are results for five compounds from patent US8546419B2, “Dual phase drug release system” (priority 2003, dated 2013).

Turning to `CC(=O)O[C@H]1C(=O)[C@@]2(C)[C@H]([C@H](OC(=O)c3ccccc3)[C@]3(O)C[C@H](OC(=O)[C@H](O)[C@@H](NC(=O)c4ccccc4)c4ccccc4)C(C)=C1C3(C)C)[C@]1(OC(C)=O)CO[C@@H]1C[C@@H]2O` [Taxol], the pEC50 in data set [1] is 7.82.
Compound `CCc1c2c(nc3ccc(OC(=O)N4CCC(N5CCCCC5)CC4)cc13)-c1cc3c(c(=O)n1C2)COC(=O)[C@]3(O)CC` [Irinotecan] yielded an MTD in data set [2] of 9 to 10 mg/kg.
Consider “1,1-Dimethylsuccinic Acid-Linked PHF-CPT [PHF-DMSA-CPT]”, for which, in data set [3] (PBS at pH 7.47/37° C., first phase release), the CPT half-release time was determined as 0.6 h. The “solubility (in words)” value in data set [4] was “soluble in water, saline and polar organic solvents”.
Take `CC[C@@]1(O)C(=O)OCc2c1cc1n(c2=O)Cc2cc3ccccc3nc2-1` [CPT, camptothecin, reference compound]: in data set [5] (Homo sapiens), the pIC50 is 7.77. Also, the “time of tumor growth from 0.10-0.15 cm^3 to 1.5 cm^3” value in data set [6] is 40 days. In addition, the MTD in data set [2] lay in the range of 9 to 10 mg/kg.
Take “Camptothecin-20-(N-succinimidoglycinate) [CPT-SI]”: the “half-time of subsequent (second stage) hydrolysis” value in data set [3] (depending on the conditions) is “over 20 hrs”. In addition, the pIC50 in data set [5] was 7.47. In data set [6], the “effect on tumor dynamics” value is listed as “no significant effect on tumor dynamics” and the “time of tumor growth from 0.10-0.15 cm^3 to 1.5 cm^3” value stood at 27 days. The solubility in water in data set [4] is under 1.0 µg/mL.
